Values joined by “and” are separate entries in the source; they are usually repeats but may differ in a detail not shown here. Equal values may be shown once.
Tests used:
N. fowleri trophozoites = assay: N. fowleri cellular growth inhibition assay; format: cell-based; conditions: Naegleria fowleri, 96 h, read-out: minimal inhibitory concentration (MIC)
[1] = Blood–brain permeability assay, multiple oral doses; format: in vivo, BALB/c mice; conditions: mice, oral gavage 25 mg/kg twice a day for 5 days, samples 4 h after each administration
N. fowleri CYP51 [2] = target: T1, N. fowleri CYP51 (Naegleria fowleri, UniProt A0A6A5BCR7, E4K/I5A/S2A, form not given)
[3] = cited from earlier work
N. fowleri CYP51 [4] = target: T1, N. fowleri CYP51; format: binding; conditions: Type I spectral response, ~2 μM P450
N. fowleri CYP51 [5] = target: T1, N. fowleri CYP51; format: biochemical; conditions: 0.5 μM P450, 60 s at 37 °C, sterol 3–50 μM

In the case of `O=C(N[C@@H](Cn1ccnc1)c1c(F)cc(-c2ccc(F)cc2)cc1F)c1ccc(-c2nnc(-c3ccccc3)o2)cc1` [F-VFV, (R)-N-(2-(1H-imidazol-1-yl)-1-(3,4’,5-trifluoro-[1,1’-biphenyl]-4-yl)ethyl)-4-(5-phenyl-1,3,4-oxadiazol-2-yl)benzamide], the MIC (N. fowleri trophozoites) is reported as 3.3 µM and 1.9 µg/mL, the “average concentration in the brain” value [1] is reported as 2.2 ± 0.2 µM and the “concentration giving complete inhibition of N. fowleri CYP51 activity” value (shortened to “concentration giving complete inhibition”) (N. fowleri CYP51 [2]) is reported as 3.0 µM. The NOAEL [3] was over 200 mg/kg.
In the case of `O=C(N[C@@H](Cn1ccnc1)c1ccc(Cl)cc1Cl)c1ccc(-c2nnc(-c3ccc(C(F)(F)F)c(F)c3)o2)cc1` [FCF3-VNI, (R)-N-(1-(2,4-dichlorophenyl)-2-(1H-imidazol-1-yl)ethyl)-4-(5-(3-fluoro-4-(trifluoromethyl)phenyl)-1,3,4-oxadiazol-2-yl)benzamide], the “concentration giving complete inhibition” value (N. fowleri CYP51 [2]) is reported as over 50 µM.
With `O=C(N[C@@H](Cn1ccnc1)c1ccc(Cl)cc1Cl)c1ccc(-c2nnc(-c3ccc(F)c(F)c3)o2)cc1` [FF-VNI, (R)-N-(1-(2,4-dichlorophenyl)-2-(1H-imidazol-1-yl)-ethyl)-4-(5-(3,4-difluorophenyl)-1,3,4-oxadiazol-2-yl)-benzamide] the MIC (N. fowleri trophozoites) was 2.7 µM and 1.5 µg/mL, the “average concentration in the brain” value [1] was 3.5 ± 0.3 µM and the “concentration giving complete inhibition” value (N. fowleri CYP51 [2]) was 6 µM. For the same compound, the NOAEL [3] was over 200 mg/kg.
With `O=C(N[C@@H](Cn1ccnc1)c1ccc(-c2ccc(F)cc2)cc1F)c1ccc(-c2nnc(-c3ccccc3)o2)cc1` [VFV, (R)-N-(1-(3,4’-difluoro-[1,1’-biphenyl]-4-yl)-2-(1H-imidazol-1-yl)-ethyl)-4-(5-phenyl-1,3,4-oxadiazol-2-yl)benzamide] the “concentration giving complete inhibition” value (N. fowleri CYP51 [2]) was 6.0 µM.
In the case of `O=C(N[C@@H](Cn1ccnc1)c1ccc(Cl)cc1Cl)c1ccc(-c2nnc(-c3ccccc3)o2)cc1` [VNI, (R)-N-(1-(2,4-dichlorophenyl)-2-(1H-imidazol-1-yl)-ethyl)-4-(5-phenyl-1,3,4-oxadiazol-2-yl)benzamide], the “concentration giving complete inhibition” value (N. fowleri CYP51 [2]) is reported as 50 µM.
For `CC(C)=CCC[C@@H](C)[C@H]1CC[C@@]2(C)[C@@H]3CC[C@H]4C(C)(C)[C@@H](O)CC[C@@]45C[C@@]35CC[C@]12C` [cycloartenol], the “low- to high-spin state transition in the heme iron” value (from here on “low- to high-spin state transition”) (N. fowleri CYP51 [4]) was 25%.
In the case of `CC(C)=CCC[C@@H](C)[C@H]1CC[C@@]2(C)C3=C(CC[C@]12C)[C@@]1(C)CC[C@H](O)C(C)(C)[C@@H]1CC3` [lanosterol], the “low- to high-spin state transition” value (N. fowleri CYP51 [4]) is reported as 70% and the kcat (N. fowleri CYP51 [5]) is reported as 1.07 s⁻¹.
In the case of `CC(C)=CCC[C@@H](C)[C@H]1CC[C@@]2(C)C3=C(CC[C@]12C)[C@@]1(C)CC[C@H](O)[C@H](C)[C@@H]1CC3` [norlanosterol], the “low- to high-spin state transition” value (N. fowleri CYP51 [4]) is reported as 94%.
For `C=C(CC[C@@H](C)[C@H]1CC[C@@]2(C)C3=C(CC[C@]12C)[C@@]1(C)CC[C@H](O)[C@@H](C)[C@@H]1CC3)C(C)C` [obtusifoliol], the “low- to high-spin state transition” value (N. fowleri CYP51 [4]) was 90% and the kcat (N. fowleri CYP51 [5]) was 0.433 s⁻¹.
In the case of `CC[C@@H]([C@H](C)O)n1ncn(-c2ccc(N3CCN(c4ccc(OC[C@@H]5CO[C@@](Cn6cncn6)(c6ccc(F)cc6F)C5)cc4)CC3)cc2)c1=O` [posaconazole, reference compound], the “concentration giving complete inhibition” value (N. fowleri CYP51 [2]) is reported as 2.0 µM.
